Active and inactive are the calls of the source. No cut-off for these calls is given here.
Legend:
[1] = Solubility of the compound in water; type: physicochemical; conditions: buffer
Mus musculus [2] = test: Analgesic activity in Swiss albino mouse at 5 to 20 mg/kg administered intramuscularly by mouse tail-flick test; type: functional, organism-based
Mus musculus [3] = test: Inhibition of morphine sulfate-induced analgesic activity in Swiss albino mouse at 20 mg/kg administered intramuscularly measured 30 mins post morphine sulfate challenge by mouse tail-flick test; type: functional, organism-based; parameters: dose 20 mg/kg
Mus musculus [4] = test: Inhibition of morphine sulfate-induced analgesic activity in Swiss albino mouse at 20 mg/kg administered intramuscularly measured 8 hrs post morphine sulfate challenge by mouse tail-flick test; type: functional; conditions: route intramuscular
Mus musculus [5] = test: Analgesic activity in Swiss albino mouse at 20 mg/kg, sc by mouse tail-flick test; type: functional, organism-based; parameters: dose 20 mg/kg
Mus musculus [6] = test: Inhibition of morphine sulfate-induced analgesic activity in Swiss albino mouse at 20 mg/kg, sc measured 24 hrs post morphine sulfate challenge by mouse tail-flick test; type: functional; conditions: route subcutaneous
Mus musculus [7] = test: Inhibition of morphine sulfate-induced analgesic activity in Swiss albino mouse at 20 mg/kg, sc measured 48 hrs post morphine sulfate challenge by mouse tail-flick test relative to naloxone hydrochloride; type: functional, organism-based; parameters: dose 20 mg/kg
Mus musculus [8] = test: Inhibition of morphine sulfate-induced analgesic activity in sc dosed Swiss albino mouse measured 30 mins post morphine sulfate challenge by mouse tail-flick test; type: functional

CN(C)C(=[NH2+])Cc1ccccc1.CN(C)C1=NC2c3cc([N+](=O)[O-])ccc3C(=[N+]([O-])[O-])C(C1c1ccccc1)C2[N+](=O)[O-] (centres undefined)
solubility [1]: Insoluble | Activity (Mus musculus [2]): inactive | Activity (Mus musculus [3]): inactive

CN(C)C(=[NH2+])Cc1ccccc1.CN(C)C1=NC2c3ccccc3C(=[N+]([O-])[O-])C(C1c1ccccc1)C2[N+](=O)[O-] (centres undefined)
solubility [1]: Insoluble | Activity (Mus musculus [2]): inactive | Activity (Mus musculus [3]): inactive

CN(C)C(=[NH2+])Cc1ccccc1.CN(C)C1=NC2C(=[N+]([O-])[O-])c3ccc([N+](=O)[O-])cc3C(C1c1ccccc1)C2[N+](=O)[O-] (centres undefined)
solubility [1]: Insoluble | Imax (Mus musculus [4]): 50% | Activity (Mus musculus [2]): inactive

CN(C)C(=[NH2+])Cc1ccccc1.CN(C)C1=NC2C(=[N+]([O-])[O-])c3c(cccc3[N+](=O)[O-])C(C1c1ccccc1)C2[N+](=O)[O-] (centres undefined)
solubility [1]: Insoluble | Activity (Mus musculus [5]): inactive | Imax (Mus musculus [6]): 50% | inhibition (Mus musculus [7]): Active

C[C@@H]1C2Cc3ccc([N+](=O)[O-])cc3[C@@]1(C)CCN2CC1CC1
AD50 (Mus musculus [8]): 9.6 mg/kg

From ChEMBL document CHEMBL3244242, “3-Benzazocine amidinium nitronates. An unusual type of opiate antagonist” (J Med Chem, 1978)
